Reference: ChEMBL document CHEMBL1201862, “PubChem BioAssay data set” (2004)
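Exposure lasted 48 hours, with cells grown in 96-well plates and compounds tested at five concentrations. GI50 is the concentration that inhibits growth by half.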 Activity calls are given as the source filed them. No stated cut-off is given here; in the data, active = GI50 up to about 1.1 µM and inactive = higher.

Legend:
Test in all cases: NCI-60 cell line screen, 48 h
786-0 = system: 786-0
A498 = system: A498
A549 = system: A549
CAKI-1 = system: CAKI-1
CCRF-CEM = system: CCRF-CEM
COLO 205 = system: COLO 205
DLD-1 = system: DLD-1
DMS-114 = system: DMS-114
DMS-273 = system: DMS-273
EKVX = system: EKVX
HCT-15 = system: HCT-15
HOP-62 = system: HOP-62
HT-29 = system: HT-29
IGROV-1 = system: IGROV-1
K562 = system: K562
KM-20L2 = system: KM-20L2
KM12 = system: KM12
LOX IMVI = system: LOX IMVI
LXFL 529 = system: LXFL 529
M14 = system: M14
M19-MEL = system: M19-MEL
MOLT-4 = system: MOLT-4
Malme-3M = system: Malme-3M
NCI-H226 = system: NCI-H226
NCI-H23 = system: NCI-H23
NCI-H460 = system: NCI-H460
NCI-H522 = system: NCI-H522
OVCAR-3 = system: OVCAR-3
OVCAR-8 = system: OVCAR-8
RPMI-8226 = system: RPMI-8226
RXF 393 = system: RXF 393
SF-268 = system: SF-268
SF-295 = system: SF-295
SF-539 = system: SF-539
SK-MEL-28 = system: SK-MEL-28
SK-MEL-2 = system: SK-MEL-2
SK-MEL-5 = system: SK-MEL-5
SK-OV-3 = system: SK-OV-3
SN12C = system: SN12C
SNB-19 = system: SNB-19
SNB-75 = system: SNB-75
SNB-78 = system: SNB-78
SW-620 = system: SW-620
TK-10 = system: TK-10
U-251 = system: U-251
UACC-257 = system: UACC-257
UACC-62 = system: UACC-62
UO-31 = system: UO-31
XF498 = system: XF498
ACHN = system: ACHN
HCC 2998 = system: HCC 2998
HCT-116 = system: HCT-116
OVCAR-5 = system: OVCAR-5
SR = system: SR

O=C(Nc1ccccc1)c1ccc(Cl)c([N+](=O)[O-])c1
GI50 (786-0): 4.85 µM (inactive) | GI50 (A498): 21.8 µM (inactive) | GI50 (A549): 20.2 µM (inactive) | GI50 (CAKI-1): 6.05 µM (inactive) | GI50 (CCRF-CEM): 4.14 µM (inactive) | GI50 (COLO 205): 28.2 µM (inactive) | GI50 (DLD-1): 23.4 µM (inactive) | GI50 (DMS-114): 16.6 µM (inactive) | GI50 (DMS-273): 3.45 µM (inactive) | GI50 (EKVX): 28.4 µM (inactive) | GI50 (HCT-15): 7.24 µM | GI50 (HOP-62): 32.7 µM (inactive) | GI50 (HT-29): 13.4 µM (inactive) | GI50 (IGROV-1): 14.8 µM (inactive) | GI50 (K562): 2.96 µM (inactive) | GI50 (KM-20L2): 13.5 µM (inactive) | GI50 (KM12): 3.09 µM (inactive) | GI50 (LOX IMVI): 4.46 µM (inactive) | GI50 (LXFL 529): 3.78 µM (inactive) | GI50 (M14): 10.2 µM (inactive) | GI50 (M19-MEL): 12.5 µM (inactive) | GI50 (MOLT-4): 3.85 µM (inactive) | GI50 (Malme-3M): 20.5 µM (inactive) | GI50 (NCI-H226): 25.2 µM (inactive) | GI50 (NCI-H23): 23 µM (inactive) | GI50 (NCI-H460): 6.31 µM (inactive) | GI50 (NCI-H522): 6.79 µM (inactive) | GI50 (OVCAR-3): 19.1 µM (inactive) | GI50 (OVCAR-8): 9.33 µM (inactive) | GI50 (RPMI-8226): 3.88 µM (inactive) | GI50 (RXF 393): 21.7 µM (inactive) | GI50 (SF-268): > 10 µM (inactive) | GI50 (SF-295): 15.3 µM (inactive) | GI50 (SF-539): 21.4 µM (inactive) | GI50 (SK-MEL-28): 22.4 µM (inactive) | GI50 (SK-MEL-2): 13.2 µM (inactive) | GI50 (SK-MEL-5): 5.82 µM (inactive) | GI50 (SK-OV-3): 23.6 µM (inactive) | GI50 (SN12C): 5.21 µM (inactive) | GI50 (SNB-19): 15.5 µM (inactive) | GI50 (SNB-75): 13.8 µM (inactive) | GI50 (SNB-78): 17.3 µM (inactive) | GI50 (SW-620): 4.85 µM (inactive) | GI50 (TK-10): 29.3 µM (inactive) | GI50 (U-251): 19.5 µM (inactive) | GI50 (UACC-257): 15.4 µM (inactive) | GI50 (UACC-62): 6.68 µM (inactive) | GI50 (UO-31): 36.1 µM (inactive) | GI50 (XF498): 18 µM (inactive)

COC(=O)c1ccccc1N1C(=O)Cc2ccccc2C1=O
GI50 (786-0): 66.1 µM (inactive) | GI50 (A549): > 100 µM (inactive) | GI50 (ACHN): > 100 µM (inactive) | GI50 (COLO 205): > 100 µM (inactive) | GI50 (DMS-114): > 100 µM (inactive) | GI50 (DMS-273): > 100 µM (inactive) | GI50 (EKVX): > 100 µM (inactive) | GI50 (HCC 2998): > 100 µM (inactive) | GI50 (HCT-116): > 10 µM (inactive) | GI50 (HCT-15): > 100 µM | GI50 (HT-29): > 100 µM (inactive) | GI50 (IGROV-1): > 100 µM (inactive) | GI50 (K562): > 100 µM (inactive) | GI50 (KM-20L2): > 100 µM (inactive) | GI50 (KM12): > 100 µM (inactive) | GI50 (LXFL 529): > 100 µM (inactive) | GI50 (M19-MEL): > 100 µM (inactive) | GI50 (MOLT-4): > 100 µM (inactive) | GI50 (Malme-3M): > 100 µM (inactive) | GI50 (NCI-H226): > 100 µM (inactive) | GI50 (NCI-H23): > 100 µM (inactive) | GI50 (OVCAR-3): 35.6 µM (inactive) | GI50 (OVCAR-5): > 100 µM (inactive) | GI50 (OVCAR-8): 75.9 µM (inactive) | GI50 (RPMI-8226): > 100 µM (inactive) | GI50 (RXF 393): 42.3 µM (inactive) | GI50 (SF-268): 55.1 µM (inactive) | GI50 (SF-295): 45.4 µM (inactive) | GI50 (SF-539): 75.3 µM (inactive) | GI50 (SK-MEL-28): > 100 µM (inactive) | GI50 (SK-MEL-2): > 100 µM (inactive) | GI50 (SK-MEL-5): > 100 µM (inactive) | GI50 (SK-OV-3): 42.9 µM (inactive) | GI50 (SN12C): > 100 µM (inactive) | GI50 (SNB-19): > 100 µM (inactive) | GI50 (SNB-75): 21.6 µM (inactive) | GI50 (SNB-78): > 100 µM (inactive) | GI50 (SR): > 100 µM (inactive) | GI50 (SW-620): > 100 µM (inactive) | GI50 (TK-10): > 100 µM (inactive) | GI50 (U-251): > 100 µM (inactive) | GI50 (UACC-257): > 100 µM (inactive) | GI50 (UACC-62): 72.6 µM (inactive) | GI50 (UO-31): > 100 µM (inactive)
